From patent US20240076440A1, “PROCESS OF FORMING A CONJUGATED POLYMER” (Sumitomo Chemical Co., ltd., priority 2019, published 2024)

Test: Solubilities of Monomers 1 and 2 in toluene, MeOH and water
Assay type: physicochemical

## CCCCCCCCC1(CCCCCCCC)c2cc(B3OCCO3)ccc2-c2ccc(B3OCCO3)cc21 [Monomer 1]
Conc 0.1 mg/ml
  Solubility in MeOH: Soluble
  Solubility in Toluene: Soluble
Conc 1 mg/ml
  Solubility in MeOH: Soluble
  Solubility in Toluene: Soluble
  Solubility in Water: Insoluble
Conc 50 mg/ml
  Solubility in MeOH: Soluble
Conc 75 mg/ml
  Solubility in MeOH: Not Soluble
  Solubility in Toluene: soluble
Conc 1 g/ml
  Solubility in Toluene: Soluble
Conc 2 g/ml
  Solubility in Toluene: Soluble

## C[N+](C)(C)CCC1(CC[N+](C)(C)C)c2cc(Br)ccc2-c2ccc(Br)cc21 [Monomer 2]
Conc 0.1 mg/ml
  Solubility in Toluene: Insoluble
Conc 1 mg/ml
  Solubility in Toluene: Insoluble
  Solubility in Water: Soluble
Conc 50 mg/ml
  Solubility in MeOH: Soluble
  Solubility in Water: Insoluble
